Where a name gives a salt, the structure may show the parent alone. Read-outs that look alike come from different tables or passages of the source.
Columns and labels:
[1] = tested on: interferon regulatory factor (IRF) pathway in THP-1 dual cells; test: THP-1 Dual reporter assay, IRF pathway (luciferase); assay type: cell-based; settings: Homo sapiens, THP1-Dual, read-out: THP1 Dual EC50 (μM) IRF
Protocol: (§1) Compounds of the present invention were tested for their activity using THP-1 dual cells (Invivogen, cat no. thpd-nfis) allowing for simultaneous study of NF-κB pathway and the interferon regulatory factor (IRF) pathway. THP-1 dual cells contain luciferase reporter gene under the control of an ISG54 (interferon-stimulated gene) minimal promoter in conjunction with five interferon-stimulated response elements and a secreted embryonic alkaline phosphatase reporter gene under the control an IFN (interferon)-β minimal promoter fused to five copies of the NF-κB consensus transcriptional response element with three copies of the c-Rel binding site. Following 18 h of stimulation with STING agonist, medium was collected and transferred onto fresh cell culture plate. To verify activity of the IRF pathway, luminescence activity was measured with standard laboratory plate reader immediately after addition 10 μl of the medium to 40 or 50 μl of luminescence reagent (Invivogen, cat. No. rep-qlc2). To verify activity of NF-κB pathway, 10 or 20 μl of the medium was mixed with 80 μl of a detection medium (Invivogen, cat. No. rep-qb2) and incubated for 1 or 2 hours at 37° C. in a humidified atmosphere containing 5% CO2. Next, absorbance at 630 or 655 nm was recorded using standard laboratory plate reader.

[2] = tested on: NF-κB pathway in THP-1 dual cells; test: THP-1 Dual reporter assay, NF-κB pathway (SEAP); assay type: cell-based; settings: Homo sapiens, THP1-Dual, read-out: THP1 Dual EC50 (μM) NFkB
Protocol: as §1

[3] = 18 h stimulation, absorbance at 630 or 655 nm

| SMILES | EC50 ([1]; 18 h stimulation, luminescence) [µM] | EC50 [2, 3] [µM] | EC50 ([1]; 18 h) [µM] | EC50 ([2]; 18 h) [µM] |
| --- | --- | --- | --- | --- |
| Cc1cnc(N2CCC[C@H](N(Cc3ccnc(C)c3)Cc3cn(C4CC4)c4cc(N5CCC[C@H](O)C5)c(F)cc4c3=O)C2)cn1 [Example 81, 1-cyclopropyl-6-fluoro-7-[(3S)-3-hydroxypiperidin-1-yl]-3-({[(3S)-1-(5-methylpyrazin-2-yl)piperidin-3-yl][(2-methylpyridin-4-yl)methyl]amino}methyl)-1,4-dihydroquinolin-4-one] | < 1 | < 1 |  |  |
| Cc1ccc(N2CCC[C@H](N(Cc3ccnc(C)c3)Cc3cn(C4CC4)c4cc(OCCN(C)C(=O)CCOCCOCCOCCOCCOCCOCCOCCN)c(F)cc4c3=O)C2)cn1 [Example 11D, 1-amino-N-(2-{[1-cyclopropyl-6-fluoro-3-({[(3S)-1-(6-methylpyridin-3-yl)piperidin-3-yl][(2-methylpyridin-4-yl)methyl]amino}methyl)-4-oxo-1,4-dihydroquinolin-7-yl]oxy}ethyl)-N-methyl-3,6,9,12,15,18,21-heptaoxatetracosan-24-amide] | 1 to 10 | 1 to 10 |  |  |
| C#CCOCCOCCOCCOCCOCCC(=O)O[C@H]1CCCN(c2cc3c(cc2F)c(=O)c(CN(Cc2ccnc(C)c2)[C@H]2CCCN(c4ccc(C)nc4)C2)cn3C2CC2)C1 [Example 31A, (3S)-1-[1-cyclopropyl-6-fluoro-3-({[(3S)-1-(6-methylpyridin-3-yl)piperidin-3-yl][(2-methylpyridin-4-yl)methyl]amino}methyl)-4-oxo-1,4-dihydroquinolin-7-yl]piperidin-3-yl 4,7,10,13,16-pentaoxanonadec-18-ynoate] | < 1 | < 1 |  |  |
| Cc1ccc(N2CCC[C@H](N(Cc3ccnc(C)c3)Cc3cn(C4CC4)c4cc(N5CCC(CO)C5)c(F)cc4c3=O)C2)cn1 (stereo partly drawn) [Example 79, 1-cyclopropyl-6-fluoro-7-[3-(hydroxymethyl)pyrrolidin-1-yl]-3-({[(3S)-1-(6-methylpyridin-3-yl)piperidin-3-yl][(2-methylpyridin-4-yl)methyl]amino}methyl)-1,4-dihydroquinolin-4-one hydrochloride] | < 1 | < 1 |  |  |
| Cc1cc(CN(Cc2cn(C3CC3)c3cc(Cl)c(F)cc3c2=O)[C@H]2CCCN(c3ccc(C(N)=O)nc3)C2)ccn1 [Example 103, 5-[(3S)-3-{[(7-Chloro-1-cyclopropyl-6-fluoro-4-oxo-1,4-dihydroquinolin-3-yl)methyl][(2-methylpyridin-4-yl)methyl]amino}piperidin-1-yl]pyridine-2-carboxamide] | < 1 | < 1 |  |  |
| Cc1ccc(N2CCC[C@H](N(Cc3ccnc(C)c3)Cc3cn(C(C)C)c4cc(N5CCN(CCO)CC5)ccc4c3=O)C2)cn1 [Example 53, 7-[4-(2-Hydroxyethyl)piperazin-1-yl]-3-({[(3S)-1-(6-methylpyridin-3-yl)piperidin-3-yl][(2-methylpyridin-4-yl)methyl]amino}methyl)-1-(propan-2-yl)-1,4-dihydroquinolin-4-one] | < 1 | < 1 |  |  |
| Cc1ccc(N2CCC[C@H](N(Cc3ccnc(C)c3)Cc3cn(C4CC4)c4cc(N5CC[C@@H](N(C)C(=O)CCOCCOCCOCCN)C5)c(F)cc4c3=O)C2)cn1 [Example 55D, 3-{2-[2-(2-aminoethoxy)ethoxy]ethoxy}-N-[(3R)-1-[1-cyclopropyl-6-fluoro-3-({[(3S)-1-(6-methylpyridin-3-yl)piperidin-3-yl][(2-methylpyridin-4-yl)methyl]amino}methyl)-4-oxo-1,4-dihydroquinolin-7-yl]pyrrolidin-3-yl]-N-methylpropanamide formate] | 1 to 10 | 1 to 10 |  |  |
| C#CCOCCOCCOCCOCCOCCC(=O)OCCOc1cc2c(cc1F)c(=O)c(CN(Cc1ccnc(C)c1)[C@H]1CCCN(c3ccc(C)nc3)C1)cn2C1CC1 [Example 47A, 2-{[1-cyclopropyl-6-fluoro-3-({[(3S)-1-(6-methylpyridin-3-yl)piperidin-3-yl][(2-methylpyridin-4-yl)methyl]amino}methyl)-4-oxo-1,4-dihydroquinolin-7-yl]oxy}ethyl 4,7,10,13,16-pentaoxanonadec-18-ynoate] | < 1 | < 1 |  |  |
| Cc1ccc(N2CCC[C@H](N(Cc3ccnc(C)c3)Cc3cn(C4CC4)c4cc(OCCN(C)CCOCCOCCOCCOCCN)c(F)cc4c3=O)C2)cn1 [Example 11C, 7-[(1-amino-15-methyl-3,6,9,12-tetraoxa-15-azaheptadecan-17-yl)oxy]-1-cyclopropyl-6-fluoro-3-({[(3S)-1-(6-methylpyridin-3-yl)piperidin-3-yl][(2-methylpyridin-4-yl)methyl]amino}methyl)-1,4-dihydroquinolin-4-one] | 1 to 10 | 1 to 10 |  |  |
| Cc1ccc(N2CCC[C@H](N(Cc3ccnc(C)c3)Cc3cn(C4CC4)c4cc(OCCN(C)C(=O)OCc5ccc(NC(=O)[C@H](CCCNC(N)=O)NC(=O)[C@@H](NC(=O)CCOCCOCCOCCN=[N+]=[N-])C(C)C)cc5)c(F)cc4c3=O)C2)cn1 [Example 11H, {4-[(2S)-2-[(2S)-2-(3-{2-[2-(2-azidoethoxy)ethoxy]ethoxy}propanamido)-3-methyl-butanamido]-5-(carbamoylamino)pentanamido]phenyl}methyl N-(2-{[1-cyclopropyl-6-fluoro-3-({[(3S)-1-(6-methylpyridin-3-yl)piperidin-3-yl][(2-methylpyridin-4-yl)methyl]amino}methyl)-4-oxo-1,4-dihydroquinolin-7-yl]oxy}ethyl)-N-methylcarbamate] | > 10 | > 10 |  |  |
| Cc1cc(CN(Cc2cn(C3CC3)c3cc(OCCO)c(F)cc3c2=O)[C@H]2C[C@H](F)CN(c3cccnc3)C2)ccn1 [Example 89, 1-cyclopropyl-6-fluoro-3-({[(3S,5S)-5-fluoro-1-(pyridin-3-yl)piperidin-3-yl][(2-methylpyridin-4-yl)methyl]amino}methyl)-7-(2-hydroxyethoxy)-1,4-dihydroquinolin-4-one hydrochloride] | < 1 | < 1 |  |  |
| Cc1cc(CN(Cc2c[nH]c3ccccc3c2=O)[C@H]2CCCN(c3ccc(N)nc3)C2)ccn1 [Example 38, 3-({[(3S)-1-(6-aminopyridin-3-yl)piperidin-3-yl][(2-methylpyridin-4-yl)methyl]amino}methyl)-1,4-dihydroquinolin-4-one] | < 1 | < 1 |  |  |
| C#CCOCCOCCOCCOCCOCCC(=O)Nc1ccc(COC(=O)N(C)[C@@H]2CCN(c3cc4c(cc3F)c(=O)c(CN(Cc3ccnc(C)c3)[C@H]3CCCN(c5ccc(C)nc5)C3)cn4C3CC3)C2)cc1 [Example 55A] | < 1 | < 1 |  |  |
| Cc1ccc(N2CCC[C@H](N(Cc3ccnc(C)c3)Cc3cn(C4CC4)c4cc(OCCOC(=O)NCc5ccc(NC(=O)CCOCCOCCOCCNC(=O)OC(C)(C)C)cc5)c(F)cc4c3=O)C2)cn1 [Example 47B, 2-{[1-cyclopropyl-6-fluoro-3-({[(3S)-1-(6-methylpyridin-3-yl)piperidin-3-yl][(2-methylpyridin-4-yl)methyl]amino}methyl)-4-oxo-1,4-dihydroquinolin-7-yl]oxy}ethyl N-{[4-(3-{2-[2-(2-{[(tert-butoxy)carbonyl]amino}ethoxy)ethoxy]ethoxy}propanamido)phenyl]methyl}carbamate] |  |  | < 1 | < 1 |
| Cc1ccc(N2CCC[C@H](N(Cc3ccnc(C)c3)Cc3cn(C4CC4)c4cc(N5CCO[C@@H](CO)C5)c(F)cc4c3=O)C2)cn1 (single isomer, unassigned) [Example 72] | < 1 | < 1 |  |  |
| Cc1ccc(N2CCC[C@H](N(Cc3ccnc(C)c3)Cc3cn(C4CC4)c4cc(-c5cnn(CCO)c5)c(F)cc4c3=O)C2)cn1 [Example 62, 1-Cyclopropyl-6-fluoro-7-[1-(2-hydroxyethyl)-1H-pyrazol 4-yl]-3-({[(3S)-1-(6-methylpyridin-3-yl)piperidin-3-yl][(2-methylpyridin-4-yl)methyl]amino}methyl)-1,4-dihydroquinolin-4-one] | < 1 | < 1 |  |  |
| COc1cc(CN(Cc2cn(C3CC3)c3cc(N4CC[C@@H](O)C4)c(F)cc3c2=O)[C@H]2CCCN(c3cccnc3)C2)ccn1 [Example 65, 1-cyclopropyl-6-fluoro-7-[(3R)-3-hydroxypyrrolidin-1-yl]-3-({[(2-methoxypyridin-4-yl)methyl][(3S)-1-(pyridin-3-yl)piperidin-3-yl]amino}methyl)-1,4-dihydroquinolin-4-one hydrochloride] |  |  | < 1 | < 1 |
| Cc1ccc(N2CCC[C@H](N(Cc3ccnc(C)c3)Cc3cn(C4CC4)c4cc(N5CC[C@@H](N(C)C(=O)CCOCCOCCOCCNC(=O)OC(C)(C)C)C5)c(F)cc4c3=O)C2)cn1 [Example 55C, tert-Butyl N-(2-{2-[2-(2-{[(3R)-1-[1-cyclopropyl-6-fluoro-3-({[(3S)-1-(6-methylpyridin-3-yl)piperidin-3-yl][(2-methylpyridin-4-yl)methyl]amino}methyl)-4-oxo-1,4-dihydroquinolin-7-yl]pyrrolidin-3-yl](methyl)carbamoyl}ethoxy)ethoxy]ethoxy}ethyl)carbamate] | < 1 | < 1 |  |  |
